Columns and labels:
[1] = test system: rice; experiment: Test B flood test rice; format: in vivo, Oryza sativa
Outline: (§1)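 Each value is a visual injury score relative to controls, with 10 meaning complete control and 0 no effect. Evaluation took place twelve to sixteen days after the 2-leaf-stage plants were treated and kept in the greenhouse.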

[2] = test system: morningglory; experiment: Test B pre/postemergence morningglory; format: in vivo, Ipomoea hederacea; conditions: for Morningglory plant response rating: scale of 0 to 10 where 0 is no effect and 10 is complete control
Outline: (§2)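 Herbicidal effect was estimated by eye on a ten-point control scale after plants spent twelve to sixteen days in a greenhouse following soil or foliar treatment. Foliar sprays targeted plants at one to four leaves; all doses were formulated in a non-phytotoxic solvent with surfactant.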

[3] = test system: crabgrass; experiment: Test B pre/postemergence crabgrass; format: in vivo, Digitaria sanguinalis; conditions: for Crabgrass plant response rating: scale of 0 to 10 where 0 is no effect and 10 is complete control
Outline: as §2

[4] = test system: rape; experiment: Test B pre/postemergence rape; format: in vivo, Brassica napus; conditions: for Rape plant response rating: scale of 0 to 10 where 0 is no effect and 10 is complete control
Outline: as §2

[5] = test system: bamyardgrass; experiment: Test B flood test barnyardgrass; format: in vivo, Echinochloa crus-galli
Outline: as §1

[6] = test system: pigweed; experiment: Test B pre/postemergence pigweed; format: in vivo, Amaranthus retroflexus; conditions: for Redroot pigweed plant response rating: scale of 0 to 10 where 0 is no effect and 10 is complete control
Outline: as §2

[7] = test system: blackgrass; experiment: Test B pre/postemergence blackgrass; format: in vivo, Alopecurus myosuroides
Outline: as §2

[8] = test system: corn; experiment: Test B pre/postemergence corn; format: in vivo, Zea mays; conditions: for Corn plant response rating: scale of 0 to 10 where 0 is no effect and 10 is complete control
Outline: as §2

[9] = test system: giant foxtail; experiment: Test B pre/postemergence giant foxtail; format: in vivo, Setaria faberii; conditions: for Giant foxtail plant response rating: scale of 0 to 10 where 0 is no effect and 10 is complete control
Outline: as §2

[10] = test system: sugar beet; experiment: Test B pre/postemergence sugar beet; format: in vivo, Beta vulgaris; conditions: for Sugarbeets plant response rating: scale of 0 to 10 where 0 is no effect and 10 is complete control
Outline: as §2

[11] = test system: purple nutsedge; experiment: Test B pre/postemergence purple nutsedge; format: in vivo, Cyperus rotundus; conditions: for Nutsedge plant response rating: scale of 0 to 10 where 0 is no effect and 10 is complete control
Outline: as §2

[12] = test system: wheat; experiment: Test B pre/postemergence wheat; format: in vivo, Triticum aestivum; conditions: for Wheat plant response rating: scale of 0 to 10 where 0 is no effect and 10 is complete control
Outline: as §2

[13] = test system: smallflower flatsedge; experiment: Test B flood test smallflower flatsedge; format: in vivo, Cyperus difformis
Outline: as §1

[14] = test system: bedstraw; experiment: Test B pre/postemergence bedstraw; format: in vivo, Galium aparine
Outline: as §2

[15] = test system: velvetleaf; experiment: Test B pre/postemergence velvetleaf; format: in vivo, Abutilon theophrasti; conditions: for Velvetleaf plant response rating: scale of 0 to 10 where 0 is no effect and 10 is complete control
Outline: as §2

[16] = test system: surinam grass; experiment: Test B pre/postemergence surinam grass; format: in vivo, Brachiaria decumbens
Outline: as §2

[17] = test system: duck salad; experiment: Test B flood test duck salad; format: in vivo, Heteranthera limosa
Outline: as §1

[18] = test system: wild oat; experiment: Test B pre/postemergence wild oat; format: in vivo, Avena fatua; conditions: for Wild oats plant response rating: scale of 0 to 10 where 0 is no effect and 10 is complete control
Outline: as §2

[19] = test system: cocklebur; experiment: Test B pre/postemergence cocklebur; format: in vivo, Xanthium strumarium; conditions: for Cocklebur plant response rating: scale of 0 to 10 where 0 is no effect and 10 is complete control
Outline: as §2

[20] = test system: soybean; experiment: Test B pre/postemergence soybean; format: in vivo, Glycine max; conditions: for Soybean plant response rating: scale of 0 to 10 where 0 is no effect and 10 is complete control
Outline: as §2

[21] = Postemergence (flood test), Rate 125 g/ha, scale 0 to 10, 0 is no effect, 10 is complete control
[22] = Rate 62 g/ha, Postemergence (flood test species), scale of 0 to 10 where 0 is no effect and 10 is complete control
[23] = Rate 500 g/ha, listed under Postemergence (flood test species), scale 0 to 10, 0 no effect, 10 complete control
[24] = Postemergence, Rate 125 g/ha, scale 0 to 10, 0 is no effect, 10 is complete control
[25] = Preemergence, Rate 62 g/ha, scale 0 to 10 (0 no effect, 10 complete control)
[26] = Rate 500 g/ha, Postemergence, scale 0 to 10, 0 no effect, 10 complete control
[27] = Preemergence, Rate 250 g/ha, scale of 0 to 10 where 0 is no effect and 10 is complete control
[28] = Preemergence, Rate 500 g/ha, scale of 0 to 10 where 0 is no effect and 10 is complete control
[29] = Rate 62 g/ha, Postemergence, scale of 0 to 10 where 0 is no effect and 10 is complete control
[30] = Rate 250 g/ha, Postemergence, scale of 0 to 10 where 0 is no effect and 10 is complete control

CC(C)C(C)n1c(=O)on(C(=O)N(c2ccccc2)C(C)C)c1=O (centres unmarked) [Compound 355]
Plant response rating, Rice [1, 21]: 0 | Rice plant response rating [1, 22]: 0 | Plant response rating, Rice [1, 23]: 0 | Plant response rating, Morningglory [2, 24]: 5 | Plant response rating, Morningglory [2, 25]: 0 | Morningglory plant response rating (0 to 10 scale) ([2]; Preemergence, Rate 125 g/ha): 0 | Morningglory plant response rating ([2]; Preemergence, Rate 250 g/ha): 0 | Morningglory plant response rating ([2]; Preemergence, Rate 500 g/ha): 2 | Morningglory plant response rating ([2]; Rate 62 g/ha, Postemergence): 2 | Plant response rating, Morningglory [2, 26]: 8 | Plant response rating, Crabgrass [3, 24]: 0 | Plant response rating, Crabgrass [3, 25]: 4 | Crabgrass plant response rating (0 to 10 scale) ([3]; Preemergence, Rate 125 g/ha): 10 | Crabgrass plant response rating ([3]; Preemergence, Rate 250 g/ha): 10 | Crabgrass plant response rating ([3]; Preemergence, Rate 500 g/ha): 10 | Crabgrass plant response rating ([3]; Rate 62 g/ha, Postemergence): 0 | Plant response rating, Crabgrass [3, 26]: 2 | Plant response rating, Rape [4, 24]: 0 | Plant response rating, Rape [4, 25]: 0 | Rape plant response rating (0 to 10 scale) ([4]; Preemergence, Rate 125 g/ha): 0 | Rape plant response rating ([4]; Preemergence, Rate 250 g/ha): 0 | Rape plant response rating ([4]; Preemergence, Rate 500 g/ha): 5 | Rape plant response rating ([4]; Rate 62 g/ha, Postemergence): 0 | Plant response rating, Rape [4, 26]: 0 | Plant response rating, Barnyardgrass [5, 21]: 8 | Barnyardgrass plant response rating [5, 22]: 1 | Plant response rating, Barnyardgrass ([5]; Rate 250 g/ha, Postemergence (flood test species), scale of 0 to 10 where 0 is no effect and 10 is complete control): 8 | Plant response rating, Barnyardgrass [5, 23]: 8 | Plant response rating, Redroot pigweed [6, 24]: 0 | Redroot pigweed plant response rating (0 to 10 scale) ([6]; Preemergence, Rate 125 g/ha): 7 | Redroot pigweed plant response rating ([6]; Preemergence, Rate 250 g/ha): 10 | Redroot pigweed plant response rating ([6]; Preemergence, Rate 500 g/ha): 10 | Redroot pigweed plant response rating ([6]; Rate 62 g/ha, Postemergence): 0 | Plant response rating, Redroot pigweed [6, 26]: 3 | Plant response rating, Blackgrass [7, 24]: 3 | Plant response rating, Blackgrass [7, 25]: 2 | Blackgrass plant response rating (0 to 10 scale) ([7]; Preemergence, Rate 125 g/ha): 4 | Blackgrass plant response rating [7, 27]: 5 | Blackgrass plant response rating [7, 28]: 10 | Blackgrass plant response rating [7, 29]: 3 | Plant response rating, Blackgrass [7, 30]: 6 | Plant response rating, Blackgrass [7, 26]: 6 | Plant response rating, Corn [8, 24]: 0 | Plant response rating, Corn [8, 25]: 0 | Corn plant response rating (0 to 10 scale) ([8]; Preemergence, Rate 125 g/ha): 0 | Corn plant response rating ([8]; Preemergence, Rate 250 g/ha): 3 | Corn plant response rating ([8]; Preemergence, Rate 500 g/ha): 4 | Corn plant response rating ([8]; Rate 62 g/ha, Postemergence): 0 | Plant response rating, Corn [8, 26]: 0 | Plant response rating, Giant foxtail [9, 24]: 2 | Plant response rating, Giant foxtail [9, 25]: 10 | Giant foxtail plant response rating (0 to 10 scale) ([9]; Preemergence, Rate 125 g/ha): 10 | Giant foxtail plant response rating ([9]; Preemergence, Rate 250 g/ha): 10 | Giant foxtail plant response rating ([9]; Preemergence, Rate 500 g/ha): 10 | Giant foxtail plant response rating ([9]; Rate 62 g/ha, Postemergence): 2 | Plant response rating, Giant foxtail [9, 26]: 8 | Plant response rating, Sugarbeets [10, 24]: 0 | Plant response rating, Sugarbeets [10, 25]: 0 | Sugarbeets plant response rating (0 to 10 scale) ([10]; Preemergence, Rate 125 g/ha): 0 | Sugarbeets plant response rating ([10]; Preemergence, Rate 250 g/ha): 2 | Sugarbeets plant response rating ([10]; Preemergence, Rate 500 g/ha): 3 | Sugarbeets plant response rating ([10]; Rate 62 g/ha, Postemergence): 0 | Plant response rating, Sugarbeets [10, 26]: 0 | Plant response rating, Nutsedge [11, 24]: 0 | Plant response rating, Nutsedge [11, 25]: 0 | Nutsedge plant response rating (0 to 10 scale) ([11]; Preemergence, Rate 125 g/ha): 0 | Nutsedge plant response rating ([11]; Preemergence, Rate 250 g/ha): 0 | Nutsedge plant response rating ([11]; Preemergence, Rate 500 g/ha): 0 | Nutsedge plant response rating ([11]; Rate 62 g/ha, Postemergence): 0 | Plant response rating, Nutsedge [11, 26]: 0 | Plant response rating, Wheat [12, 24]: 2 | Plant response rating, Wheat [12, 25]: 0 | Wheat plant response rating (0 to 10 scale) ([12]; Preemergence, Rate 125 g/ha): 0 | Wheat plant response rating ([12]; Preemergence, Rate 250 g/ha): 0 | Wheat plant response rating ([12]; Preemergence, Rate 500 g/ha): 2 | Wheat plant response rating ([12]; Rate 62 g/ha, Postemergence): 0 | Plant response rating, Wheat [12, 26]: 3 | Plant response rating, S. Flatsedge [13, 21]: 2 | S. Flatsedge plant response rating [13, 22]: 0 | Plant response rating, S. Flatsedge [13, 23]: 8 | Plant response rating, Bedstraw [14, 24]: 0 | Plant response rating, Bedstraw [14, 25]: 0 | Bedstraw plant response rating [14, 27]: 0 | Bedstraw plant response rating [14, 28]: 9 | Bedstraw plant response rating [14, 29]: 0 | Plant response rating, Bedstraw [14, 30]: 0 | Plant response rating, Bedstraw [14, 26]: 0 | Plant response rating, Velvetleaf [15, 24]: 0 | Plant response rating, Velvetleaf [15, 25]: 0 | Velvetleaf plant response rating (0 to 10 scale) ([15]; Preemergence, Rate 125 g/ha): 2 | Velvetleaf plant response rating ([15]; Preemergence, Rate 250 g/ha): 3 | Velvetleaf plant response rating ([15]; Preemergence, Rate 500 g/ha): 5 | Velvetleaf plant response rating ([15]; Rate 62 g/ha, Postemergence): 0 | Plant response rating, Velvetleaf [15, 26]: 2 | Plant response rating, B. signalgrass [16, 24]: 0 | Plant response rating, B. signalgrass [16, 25]: 0 | B. signalgrass plant response rating (0 to 10 scale, 0 is no effect, 10 is complete control) ([16]; Preemergence, Rate 125 g/ha): 2 | B. signalgrass plant response rating [16, 27]: 3 | B. signalgrass plant response rating [16, 28]: 6 | B. signalgrass plant response rating [16, 29]: 0 | Plant response rating, B. signalgrass [16, 30]: 0 | Plant response rating, B. signalgrass [16, 26]: 2 | Plant response rating, Ducksalad [17, 21]: 0 | Ducksalad plant response rating [17, 22]: 0 | Plant response rating, Ducksalad [17, 23]: 0 | Plant response rating, Wild oats [18, 24]: 3 | Plant response rating, Wild oats [18, 25]: 0 | Wild oats plant response rating (0 to 10 scale) ([18]; Preemergence, Rate 125 g/ha): 0 | Wild oats plant response rating ([18]; Preemergence, Rate 250 g/ha): 0 | Wild oats plant response rating ([18]; Preemergence, Rate 500 g/ha): 9 | Wild oats plant response rating ([18]; Rate 62 g/ha, Postemergence): 0 | Plant response rating, Wild oats [18, 26]: 5 | Plant response rating, Cocklebur [19, 24]: 0 | Plant response rating, Cocklebur [19, 25]: 0 | Cocklebur plant response rating (0 to 10 scale) ([19]; Preemergence, Rate 125 g/ha): 0 | Cocklebur plant response rating ([19]; Preemergence, Rate 250 g/ha): 0 | Cocklebur plant response rating ([19]; Rate 62 g/ha, Postemergence): 0 | Plant response rating, Cocklebur [19, 26]: 4 | Plant response rating, Soybean [20, 24]: 2 | Plant response rating, Soybean [20, 25]: 0 | Soybean plant response rating (0 to 10 scale) ([20]; Preemergence, Rate 125 g/ha): 0 | Soybean plant response rating ([20]; Preemergence, Rate 250 g/ha): 0 | Soybean plant response rating ([20]; Preemergence, Rate 500 g/ha): 0 | Soybean plant response rating ([20]; Rate 62 g/ha, Postemergence): 1 | Plant response rating, Soybean [20, 26]: 3
